Reference: patent US12268683B2, “Compounds and methods for synergistic activation of M channels” (THE REGENTS OF THE UNIVERSITY OF CALIFORNIA, priority 2018, dated 2025)
Like-named read-outs stand apart in the source and are kept apart here.

Legend:
KCNQ2 = KCNQ2 (Homo sapiens, UniProt O43526); assay: TEVC of homomeric KCNQ2 expressed in Xenopus oocytes; format: cell-based
Source text: (§1) cRNA transcripts encoding human KCNA1, KCNQ1, KCNQ2, KCNQ3, KCNQ4, or KCNQ5 were generated by in vitro transcription using the T7 polymerase message machine kit (Thermo Fisher Scientific), after vector linearization, from cDNA sub-cloned into plasmids incorporating X. laevis β-globin 5′ and 3′ UTRs flanking the coding region to enhance translation and cRNA stability. cRNA was quantified by spectrophotometry. Mutant cDNAs were generated by site-directed mutagenesis using a QuikChange kit according to manufacturer's protocol (Stratagene, San Diego, Calif.) and corresponding cRNAs prepared as above. Defolliculated stage V and VI X. laevis oocytes (Ecocyte Bioscience, Austin, Tex.) were injected with Kv channel a subunit cRNAs (10 ng total per oocyte). Oocytes were incubated at 16° C. in Barth's saline solution (Ecocyte) containing penicillin and streptomycin, with daily washing, for 3-5 days prior to two-electrode voltage-clamp (TEVC) recording.
(§2) TEVC recording was performed at room temperature with an OC-725C amplifier (Warner Instruments, Hamden, Conn.) and pClamp10.2 software (Molecular Devices, Sunnyvale, Calif.) 3-5 days after cRNA injection as described in the section above. Oocytes were placed in a small-volume oocyte bath (Warner) and viewed with a dissection microscope. Chemicals were sourced from Sigma. Bath solution was (in mM): 96 NaCl, 4 KCl, 1 MgCl2, 1 CaCl2. 10 HEPES (pH 7.6). […] MTX (DMSO), sorbic acid (ethanol), and glutaconic acid (molecular grade H2O) were stored at −20° C. as 1 M stocks. Oleamide was stored as a 1 mM stock in ethanol at 4° C. Palmitic acid was conjugated with bovine serum albumin as a 1 mM stock and stored at −20° C. All compounds were diluted to working concentrations each experimental day. All compounds were introduced to the recording bath via gravity perfusion at a constant flow of 1 ml/min for 3 min prior to recording. Pipettes were of 1-2 MΩ resistance when filled with 3 M KCl. Currents were recorded in response to pulses between −80 and +40 mV at 20 mV intervals, or a single pulse to +40 mV, from a holding potential of −80 mV, to yield current-voltage relationships, current magnitude, and for quantifying activation rate. TEVC data analysis was performed with Clampfit10.2 (Molecular Devices) and Graphpad Prism software (GraphPad, San Diego, Calif., USA); values are stated as mean±SEM. Normalized tail currents were plotted versus prepulse voltage and fitted with a single Boltzmann function:
(§3) cRNA transcripts encoding human KCNQ2, KCNQ3, KCNQ4, KCNQ5 (Kv7.2-Kv7.5) were generated by in vitro transcription using the T7 polymerase mMessage mMachine kit (Thermo Fisher Scientific), after vector linearization, from cDNA sub-cloned into plasmids incorporating Xenopus laevis β-globin 5′ and 3′ UTRs flanking the coding region to enhance translation and cRNA stability. cRNA was quantified by spectrophotometry. Mutant KCNQ2 and KCNQ3 cDNAs were generated with site-directed mutagenesis using a QuikChange kit according to the manufacturer's protocol (Stratagene, San Diego, Calif.) and corresponding cRNAs prepared as above. Defolliculated stage V and VI Xenopus laevis oocytes (Ecocyte Bioscience, Austin, Tex.) were injected with KCNQ channel α subunit cRNAs (5-10 ng). The oocytes were incubated at 16° C. in Barth's saline solution (Ecocyte) containing penicillin and streptomycin, with daily washing, for 2-5 days prior to two-electrode voltage-clamp (TEVC) recording.
(§4) TEVC recording was performed at room temperature using a OC-725C amplifier (Warner Instruments, Hamden, Conn.) and pClamp8 software (Molecular Devices, Sunnyvale, Calif.) 2-5 days after cRNA injection as described in the section above. The oocytes were placed in a small-volume oocyte bath (Warner) and viewed with a dissection microscope. Unless otherwise stated, chemicals were sourced from Sigma. Bath solution was (in mM): 96 NaCl, 4 KCl, 1 MgCl2, 1 CaCl2, 10 HEPES (pH 7.6).

KCNQ3* (KCNQ3-A315T) = KCNQ3* (KCNQ3-A315T) (Homo sapiens, UniProt O43525, A315T); assay: TEVC of homomeric KCNQ3* expressed in Xenopus oocytes; format: cell-based
Source text: as §1, §2, §3, §4

KCNQ5 = KCNQ5 (Homo sapiens, UniProt Q9NR82); assay: TEVC of homomeric KCNQ5 expressed in Xenopus oocytes; format: cell-based
Source text: as §1, §2, §3, §4

[1] = tested on: pentylene tetrazole-induced seizures; assay: PTZ chemoconvulsant assay; format: in vivo, mouse; conditions: for clonic seizure incidence: alone
Source text: We compared anticonvulsant activities of test compounds in male C57BL/6 mice (Charles River) aged 2-3 months. Mice were housed and used according to the recommendations in the Guide for the Care and Use of Laboratory Animals of the National Institutes of Health (NIH Publication, 8th edition, 2011). The study protocol was approved by the Institutional Animal Care and Use Committee of University of California, Irvine, which confirmed that all relevant ethical regulations were adhered to. Chemicals were sourced from Sigma (St. Louis, Mo., USA). A pentylene tetrazole (PTZ) chemoconvulsant assay was used-. […] Following the PTZ injection, mice were caged individually and an observer (GWA) blinded to the drug used recorded, over 20 min, clonic and tonic seizure incidence, and seizure-related mortality.
We quantified the anticonvulsant activities of (E)-2-dodecenal and tridecanal in male C57BL/6 mice (Charles River, Wilmington, Mass.) aged 2-3 months. The mice were housed and used according to the recommendations in the Guide for the Care and Use of Laboratory Animals of the National Institutes of Health (NIH Publication, 8th edition, 2011). The study protocol was approved by the Institutional Animal Care and Use Committee of University of California, Irvine. The chemicals were sourced from Sigma (St. Louis, Mo., USA). We used a pentylene tetrazole (PTZ) chemoconvulsant assay as we previously described (30). We injected the mice intraperitoneally with (E)-2-dodecenal (2 or 20 mgkg^−1) (with or without 2.5 mgkg^−1 XE991) or tridecanal (20 mgkg^−1) solubilized in PBS, or vehicle control (PBS), and then 30 minutes later we injected mice intraperitoneally with 80 mgkg-PTZ. Following the PTZ injection, the mice were caged individually and an observer (GWA) blinded to the experimental condition timed the latency to first seizure.
We compared anticonvulsant activities of 3FMSG in male C57BL/6 mice (Charles River) aged 2-3 months. Mice were housed and used according to the recommendations in the Guide for the Care and Use of Laboratory Animals of the National Institutes of Health (NIH Publication, 8th edition, 2011). The study protocol was approved by the Institutional Animal Care and Use Committee of University of California, Irvine, which confirmed that all relevant ethical regulations were adhered to. Chemicals were sourced from Sigma (St. Louis, Mo., USA). We used a pentylene tetrazole (PTZ) chemoconvulsant assay as we previously described^27. Mice were injected intraperitoneally with 3FMSG (5 mg kg^−1) or vehicle control (PBS) and then 30 minutes later injected intraperitoneally with 80 mg kg^−1 PTZ. Following the PTZ injection, mice were caged individually and an observer (GWA) blinded to the drug used recorded seizure activity over 20 minutes.

SMILES: NCC1(CC(=O)O)CCCCC1 [gabapentin, reference compound]
- effect on KCNQ2 (in words) (KCNQ2): insensitive
- effect on KCNQ3* (in words) (KCNQ3* (KCNQ3-A315T)): activated
- maximal fold increase in KCNQ3 current (KCNQ3* (KCNQ3-A315T); −60 mV): 4 fold
- EC50 (KCNQ3* (KCNQ3-A315T); −60 mV, read-out: EC50 of KCNQ3* activation by gabapentin): 5.3 nM
- effect on KCNQ5 (in words) (KCNQ5): activated
- maximal fold increase in KCNQ5 current (KCNQ5; −60 mV): 3 fold
- EC50 (KCNQ5; −60 mV, read-out: EC50 of KCNQ5 activation by gabapentin): 1.9 nM

SMILES: CCCCCCCCC/C=C/C=O [(E)-2-dodecenal]
- EC50 (KCNQ2; read-out: EC50 of KCNQ2 activation by (E)-2-dodecenal): 60 ± 10 nM
- effect on KCNQ3* (in words) (KCNQ3* (KCNQ3-A315T)): insensitive
- latency to first PTZ-induced seizure ([1]; 2 mgkg−1 i.p.): threefold
- latency to first PTZ-induced seizure ([1]; 20 mgkg−1 i.p.): > threefold

SMILES: NCC(=O)O [glycine, reference compound]
- effect on KCNQ2 (in words) (KCNQ2): unable to open
- effect on KCNQ3* (in words) (KCNQ3* (KCNQ3-A315T)): no effects
- effect on KCNQ5 (in words) (KCNQ5): no effects

SMILES: CC(=O)c1c(O)c(C)c(O)c(Cc2c(O)c3c(c(C(=O)/C=C/c4ccccc4)c2O)OC(C)(C)C=C3)c1O [MTX, mallotoxin]
- shift of midpoint voltage of KCNQ2 activation (KCNQ2; MTX 30 μM): −24 mV
- EC50 (KCNQ2; −60 mV, read-out: EC50 of KCNQ2 activation): 6400 nM
- shift of midpoint voltage of KCNQ3* activation (KCNQ3* (KCNQ3-A315T); MTX 30 μM): −9 mV
- EC50 (KCNQ3* (KCNQ3-A315T); −60 mV, read-out: EC50 of KCNQ3* activation): 13000 nM
- clonic seizure incidence ([1]; 10 mg/kg i.p.): neither compound reduced clonic seizures alone
- clonic seizure incidence ([1]; 20 mg/kg i.p.): halved
- suppression of PTZ-induced tonic seizures ([1]; individually): ineffective
- shift of midpoint voltage of KCNQ5 activation (KCNQ5; MTX 30 μM): −14 mV
- KCNQ5 current fold-increase (KCNQ5; −60 mV, 100 μM): eight-fold
- EC50 (KCNQ5; −60 mV, read-out: EC50 of KCNQ5 activation): 67100 nM

SMILES: CS(=O)(=O)N(CC(=O)O)c1cccc(F)c1 [3FMSG]
- effect of tenfold excess (100 μM) on KCNQ2 activation by 2FPG (10 μM) (KCNQ2): subtly reduced the efficacy
- effect on KCNQ2 (in words) (KCNQ2): negligible effects
- relative Na+ permeability of KCNQ3* compared to K+ (KCNQ3* (KCNQ3-A315T)): induces a similar increase in relative Na^+ permeability
- EC50 (KCNQ3* (KCNQ3-A315T); Example 4, read-out: EC50, ΔV0.5act of KCNQ3*): 18 ± 12 nM
- incidence of PTZ-induced tonic seizures ([1]; 5 mg/kg i.p.): reduced by threefold
- EC50 (KCNQ5; Example 4, read-out: EC50 of KCNQ5 activation): 171 ± 112 nM
